# Measurements from patent publication US20060002934A1 (priority 2002, published 2006).
# Entries after “also recorded” stand apart in the source; their conditions may differ.
# Assays:
# Assay type in all cases: cell-based, human
# [1] = test system: MDA-MB-435S cells expressing del 8 E-cadherin; assay: Cell motility by time-lapse laser scanning microscopy, del 8 E-cadherin transfectants; details: del 8 E-cadherin cells on collagen I, Tyrphostin AG 1478 6.3 μM; for cell motility enhanced by mutant E-cadherin (effect of inhibitor): 7 h, PD 98059 50 μM, LY 294002 40 μM
# Description: For time-lapse laser scanning microscopy, cells were cultivated in a microscope-coupled incubation chamber (Zeiss, Jena, Germany) at 37° C. under 5% CO2. Cells were seeded at a density of 2×10^5 cells per 3.5-cm in plates with a glass bottom which were purchased either uncoated or coated with poly-lysine from MatTek Corporation (Ashland, Mass., USA). Uncoated plates were coated for 4 h at 37° C. with collagen I (100 μg/ml, Sigma, Deisenhofen, Germany) or overnight at 4° C. with fibronectin (10 μg/ml, Sigma) or vitronectin (10 μg/ml, Becton Dickinson, Bedford, USA). Kinase inhibitors were used at final concentrations of 50 μM (PD 98059, Sigma, Deisenhofen, Germany), 40 μM (LY 294002, Calbiochem, Schwalbach, Germany), or 6.3 μM (Tyrphostin AG 1478, Sigma). […] Phase contrast images were taken at 3 min intervals with an Axiovert laser scanning microscope LSM 510 (Zeiss) with lens PNF 20×/0.4 PH2 and a helium-neon laser at 543 nm in transmission scanning mode. The percentage of motile cells was measured by drawing the outlines of cells on the screen and counting the cells which moved completely out of the initial area within the recording time of 7 h. Semiautomatic tracing of cell nuclei using the laser scanning microscope software from Zeiss allowed determination of the individual cell speed. The calculation of the cell speed is based on the division of the displacement of an individual cell divided by the total time of recording. Cells were brought in suspension by disruption of cell-cell and cell-matrix interactions and seeded on glass plates precoated with collagen type 1. Cell motility was analyzed by long-term recordings of a duration of 7 h starting 2 h after plating using a laser scanning microscope coupled with a temperature- and CO2-controlled incubation chamber. Motile cells were defined as cells which were able to move out of their initial space within 7 h according to a method described by Marks (J. Cell Bioll. 112 (1991), 149-158). The percentage of motile cells was similar in non-transfected (30%) or wt E-cadherin expressing MDA-MB-435S cells (26%) but elevated upon expression of mutant E-cadherin: […] (52%), […] (58%) and p8 (45%, FIG. 1B). It has been shown for a number of cell lines that the motile behavior of individual cells is variable and therefore it is advisable to investigate a large number of cells to obtain a reliable determination of cellular velocity (Hartmann-Petersen, Cytometry 40 (2000), 260-270). In order to determine the motility of individual cells, the center of the nucleus was semiautomatically traced and the speed of 60 cells per cell line derived from at least three independent experiments was calculated. The range between the minimal and the maximal cell speed and the median of cell speeds were used as motility parameters. […]
# p44/42 MAP kinase = assay: Western blot with phosphorylation-specific antibodies, MAP kinase; details: data not shown
# Description: (§1) For immunoblot analysis, cells were seeded at a density of 6×10^5 cells per 10 cm tissue culture dish and lysed 5 h later with 500 μL-CAM buffer (140 mM NaCl, 4.7 mM KCl, 0.7 mM MgSO4, 1.2 mM CaCl2, 10 mM Hepes pH 7.4, containing 1% (v/v) Triton-X-100 and 1 mM phenylmethylsulfonylfluoride (PMSF) (Cunningham, Proc. Acad. Sci. USA 81 (1984), 5787-5791). Proteins were separated by 7% SDS-polyacrylamide gel electrophoresis followed by transfer to nitrocellulose (Schleicher & Schuell, Dassel, Germany) or PVDF (Bio-Rad Laboratories, München, Germany) membranes. Polyclonal antibodies against total or activated kinases were purchased from New England Biolabs (Frankfurt, Germany): Akt antibody (#9272), detecting total Akt kinase levels, phospho-Akt antibody (Ser473, #9270), detecting phosphorylated Ser 473 in Akt1, Akt2 and Akt3, MAP kinase antibody (# 9102), detecting total MAP kinase, phospho-p44/42 MAP kinase (#9101) detecting activated MAP kinase phosphorylated at Thr 202/[…]. Monoclonal antibody against p53 was purchased from Oncogene Research Products (Ab-6, #OP43). Polyclonal antibodies against total or activated p38 MAP kinases were purchased from New England Biolabs. Phospho-p38 MAP kinase polyclonal antibody (#9211) detects phosphorylated threonine 180 and tyrosine 182 p38 MAP kinase (#9212). […]
# [2] = test system: wt-EcadEGFP expressing MDA-MB-435S cells; assay: Time-lapse imaging of motility and E-cadherin localization, wt-EcadEGFP transfectants; details: for cell motility (range of cell speeds) / cell paths (range): wt-EcadEGFP cells, 10 cells, 4 h
# Description: (§2) For time-lapse laser scanning microscopy, cells were cultivated overnight in a microscope-coupled incubation chamber (Zeiss, Jena, Germany) at 37 °C under 5% CO2. Cells were seeded at a density of 1×10^5 cells per 3.5-cm in collagen I-coated plates with a glass bottom which were purchased from MatTek Corporation (Ashland, Mass., USA). Uncoated plates were coated for 4 h at 37° C. with collagen I (100 μg/ml). EGFR kinase inhibitor Tyrphostin AG 1478 (Sigma, Deisenhofen, Germany) was used at a final concentration of 6.3 μM. […] Phase contrast images were taken at 2-3 min intervals with an Axiovert laser scanning microscope LSM 510 (Zeiss) with lens PNF 63× (oil) and an argon laser at 488 nm with a transmission filter of 515 nm.
# (§3) To investigate the temporal localization of mutant E-cadherin during cell migration, EcadEGFP transfected cells were cultivated in an incubation chamber coupled with a Zeiss Axiovert 100 microscope. Cells transfected with the vector pEGFP-N2 Vektor or the different EcadEGFP constructs (wt-EcadEGFP and p8-EcadEGFP), were seeded on collagen I coated dishes with glas bottom.
# Akt/PKB = assay: Western blot with phosphorylation-specific antibodies, Akt/PKB; details: data not shown
# Description: as §1
# [3] = test system: p8-EcadEGFP expressing MDA-MB-435S cells; assay: Time-lapse imaging of motility and E-cadherin localization, p8-EcadEGFP transfectants
# Description: as §2, §3
# [4] = test system: MDA-MB-435S cells expressing wt E-cadherin; assay: Cell motility by time-lapse laser scanning microscopy, wt E-cadherin transfectants
# Description: For time-lapse laser scanning microscopy, cells were cultivated in a microscope-coupled incubation chamber (Zeiss, Jena, Germany) at 37° C. under 5% CO2. Cells were seeded at a density of 2×10^5 cells per 3.5-cm in plates with a glass bottom which were purchased either uncoated or coated with poly-lysine from MatTek Corporation (Ashland, Mass., USA). Uncoated plates were coated for 4 h at 37° C. with collagen I (100 μg/ml, Sigma, Deisenhofen, Germany) or overnight at 4° C. with fibronectin (10 μg/ml, Sigma) or vitronectin (10 μg/ml, Becton Dickinson, Bedford, USA). Kinase inhibitors were used at final concentrations of 50 μM (PD 98059, Sigma, Deisenhofen, Germany), 40 μM (LY 294002, Calbiochem, Schwalbach, Germany), or 6.3 μM (Tyrphostin AG 1478, Sigma).
# Phase contrast images were taken at 3 min intervals with an Axiovert laser scanning microscope LSM 510 (Zeiss) with lens PNF 20×/0.4 PH2 and a helium-neon laser at 543 nm in transmission scanning mode. The percentage of motile cells was measured by drawing the outlines of cells on the screen and counting the cells which moved completely out of the initial area within the recording time of 7 h. […]
# Cells were brought in suspension by disruption of cell-cell and cell-matrix interactions and seeded on glass plates precoated with collagen type 1. Cell motility was analyzed by long-term recordings of a duration of 7 h starting 2 h after plating using a laser scanning microscope coupled with a temperature- and CO2-controlled incubation chamber. […]
# It has been shown for a number of cell lines that the motile behavior of individual cells is variable and therefore it is advisable to investigate a large number of cells to obtain a reliable determination of cellular velocity (Hartmann-Petersen, Cytometry 40 (2000), 260-270). In order to determine the motility of individual cells, the center of the nucleus was semiautomatically traced and the speed of 60 cells per cell line derived from at least three independent experiments was calculated. […]
# [5] = collagen I, Tyrphostin AG1478 6,3 μM
# [6] = p8-EcadEGFP cells, collagen I, Tyrphostin AG1478 6,3 μM, 10 cells, 4 h
# [7] = serum starved overnight, EGF 100 ng/ml
Molecule,cell motility enhanced by mutant E-cadherin (effect of inhibitor) [1],EGF-induced activation of MAP kinase (phosphorylation) (p44/42 MAP kinase),"localization of wt-EcadEGFP ([2]; Tyrphostin AG1478 6,3 μM)","cell motility (range of cell speeds) [2, 5]","cell paths (range) [2, 5]",EGF-induced activation of Akt/PKB (Akt/PKB),median and range of cell speeds ([1]; traced 7 h),percentage of motile cells ([1]; traced 7 h),"localization of p8-EcadEGFP ([3]; Tyrphostin AG1478 6,3 μM)","cell motility (range of cell speeds) [3, 6]","cell paths (range) [3, 6]","cell motility (range of cell speeds) [2, 7]","cell paths (range) [2, 7]","percentage of motile cells ([4]; wt E-cadherin cells on collagen I, 7 h, EGF 100 ng/ml)","cellular motility ([4]; wt E-cadherin cells, EGF treatment)","cell morphology ([4]; wt or del 8 E-cadherin cells on collagen I, 2 h after plating, EGF 100 ng/ml (FIG. 5C))","effect on the motility of p8-EcadEGFP transfected cells ([3]; EGF 100 ng/ml, p=0,364 Kruskal Wallis Test)","cell paths (range) ([3]; p8-EcadEGFP cells, serum starved overnight, EGF 100 ng/ml, 10 cells, 4 h)","localization of p8-EcadEGFP ([3]; serum starved, EGF 100 ng/ml)"
COc1cccc(-c2cc(=O)c3ccccc3o2)c1N [PD 98059],less effective; also recorded: no inhibitory effect,effectively blocked,–,–,–,–,–,–,–,–,–,–,–,–,–,–,–,–,–
COc1cc2ncnc(Nc3cccc(Cl)c3)c2cc1OC [Tyrphostin AG 1478],sensitive,completely blocked,not significantly changed; also recorded: no influence,"1,3-8,8 μm/h","15,1-35,2 μm",completely blocked,decreased to the level of wt E-cadherin expressing cells,decreased to the level of wt E-cadherin expressing cells,also localized perinuclear and at cell cell adhesion sites; also recorded: localized at cell cell contacts and perinuclear,"5,7-20 μm/h","22,8-80,3 μm",–,–,–,–,–,–,–,–
epidermal growth factor [EGF],–,–,–,–,–,–,–,–,–,–,–,"3,8-15,6 μm/h","15,1-62,4 μm",increased to the level of del 8 E-cadherin expressing cells,enhanced cellular motility,developed filopodia and lost cell to cell contacts,only minor effects,"19,7-97,2 μm",detectable at the cell edges and in lamellipodiae and at cell cell contact sites; also recorded: no influence
